Data on six compounds can be found in ChEMBL document CHEMBL1201862, “PubChem BioAssay data set” (2004).

The source made the active and inactive calls. Where only a bound is given, the exact number is not on record here.

One may read the AC50 as the concentration giving half of the maximal activity seen. A word on the EC50: it is the midpoint of the concentration-response curve. Broadly, the IC50 is the concentration that inhibits the measured activity by half. As usually defined, the CC50 is the concentration at which the toxic effect on the cells reaches its halfway point.

One experiment relates to HeLa. The experiment is described as follows: HeLa cell cytotoxicity, dose response, cytotoxicity control, 24 h, cherry-picked samples (AID 504726).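 Further: potency for cytotoxicity as loss of luminescence signal.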 The experiment is classed as functional, cell-based. The settings on record: Homo sapiens.
The target in experiment [1] is Dual specificity tyrosine-phosphorylation-regulated kinase 1A (Rattus norvegicus, UniProt Q63470). The experiment is classed as biochemical, Homo sapiens.
A short description of experiment [2]: NIH-3T3 fibroblast cytotoxicity, dose response, cytotoxicity control, cell-based, fluorescence, Alamar Blue, secondary assay (AID 2327).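 Further: NIH-3T3 mouse fibroblasts cultured with fluconazole at 8 µg/mL.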 The format is functional. (In general: The colour change of resazurin is a common sign of viable cells or microbes.)
Experiment [3] in a line: C. albicans growth with fluconazole, confirmation, fluorescence, retest (AID 2467). The experiment is classed as functional, cell-based.
The target of experiment [4] is T1, Serine/threonine-protein phosphatase (Candida dubliniensis (strain CD36 / CBS 7987 / NCPF 3949 / NRRLY-17841) (Yeast), UniProt B9W6M3).
T1 sequence (B9W6M3 whole entry): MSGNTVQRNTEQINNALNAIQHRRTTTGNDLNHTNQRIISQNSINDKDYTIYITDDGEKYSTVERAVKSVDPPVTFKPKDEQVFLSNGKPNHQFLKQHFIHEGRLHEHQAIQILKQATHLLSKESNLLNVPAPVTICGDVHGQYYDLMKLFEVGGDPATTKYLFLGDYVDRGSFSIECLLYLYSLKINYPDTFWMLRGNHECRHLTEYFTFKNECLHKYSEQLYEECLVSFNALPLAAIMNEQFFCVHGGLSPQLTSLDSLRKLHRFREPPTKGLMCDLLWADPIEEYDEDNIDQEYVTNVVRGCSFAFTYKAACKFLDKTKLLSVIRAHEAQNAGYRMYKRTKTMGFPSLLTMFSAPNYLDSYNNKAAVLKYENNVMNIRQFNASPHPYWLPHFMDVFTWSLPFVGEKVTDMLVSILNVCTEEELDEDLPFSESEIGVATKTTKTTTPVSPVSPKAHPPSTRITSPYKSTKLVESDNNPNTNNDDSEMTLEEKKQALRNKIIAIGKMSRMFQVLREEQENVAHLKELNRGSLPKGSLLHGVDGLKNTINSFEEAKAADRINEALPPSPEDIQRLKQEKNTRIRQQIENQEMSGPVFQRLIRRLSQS
Description: calcineurin pathway inhibitors in yeast reporter, dose response, S. cerevisiae, CDRE-lacZ, luminescence, secondary (AID 2388).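 Further: yeast reporter cells carrying a calcineurin-responsive lacZ construct stimulated with calcium chloride; luminescent beta-galactosidase reporter signal in whole cells rather than isolated phosphatase activity; potency for inhibition where a drop in reporter signal means calcineurin blockade.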 The format is functional, cell-based.

The target of experiment [5] is ATP-dependent molecular chaperone HSP82 (Candida albicans (strain WO-1) (Yeast), UniProt C4YTQ8). The experiment is described as follows: loss of DOC-induced GRE-beta-galactosidase reporter signal, dose response, Hsp90 inhibitor project, S. cerevisiae, luminescence (AID 2400).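 Further: beta-galactosidase luminescence from glucocorticoid response element reporter as proxy for Hsp90 function; inhibitor potency where signal loss means Hsp90 inhibition.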 The experiment is classed as functional, cell-based.
Sequence of ATP-dependent molecular chaperone HSP82 (C4YTQ8 whole entry): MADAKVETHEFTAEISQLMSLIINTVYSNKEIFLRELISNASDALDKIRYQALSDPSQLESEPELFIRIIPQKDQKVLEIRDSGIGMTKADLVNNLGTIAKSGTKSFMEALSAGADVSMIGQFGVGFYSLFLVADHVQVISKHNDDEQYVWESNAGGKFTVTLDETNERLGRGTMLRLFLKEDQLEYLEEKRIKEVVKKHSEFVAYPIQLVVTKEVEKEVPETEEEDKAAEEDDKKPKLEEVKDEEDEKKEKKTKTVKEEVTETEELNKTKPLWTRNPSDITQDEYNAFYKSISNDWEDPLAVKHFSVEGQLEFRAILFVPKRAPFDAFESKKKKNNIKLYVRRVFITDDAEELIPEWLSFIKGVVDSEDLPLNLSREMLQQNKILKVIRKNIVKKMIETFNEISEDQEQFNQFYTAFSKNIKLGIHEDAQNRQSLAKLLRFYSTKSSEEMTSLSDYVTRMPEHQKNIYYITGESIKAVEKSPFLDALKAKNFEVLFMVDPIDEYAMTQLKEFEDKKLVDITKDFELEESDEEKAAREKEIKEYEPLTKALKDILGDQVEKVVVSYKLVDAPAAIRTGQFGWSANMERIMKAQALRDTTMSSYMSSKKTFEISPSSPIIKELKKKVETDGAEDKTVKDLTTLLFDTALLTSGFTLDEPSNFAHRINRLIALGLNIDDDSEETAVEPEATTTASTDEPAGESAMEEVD
Experiment [6] deals with T2, Delta-type opioid receptor (Homo sapiens, UniProt P41143). Description: HTS Image-Based Screen for Antagonists of the DOR Receptor. [Related pubchem assays (depositor defined):AID1777, AID1785, AID1786, AID2133]. The format is functional.
T2 sequence (P41143 whole entry): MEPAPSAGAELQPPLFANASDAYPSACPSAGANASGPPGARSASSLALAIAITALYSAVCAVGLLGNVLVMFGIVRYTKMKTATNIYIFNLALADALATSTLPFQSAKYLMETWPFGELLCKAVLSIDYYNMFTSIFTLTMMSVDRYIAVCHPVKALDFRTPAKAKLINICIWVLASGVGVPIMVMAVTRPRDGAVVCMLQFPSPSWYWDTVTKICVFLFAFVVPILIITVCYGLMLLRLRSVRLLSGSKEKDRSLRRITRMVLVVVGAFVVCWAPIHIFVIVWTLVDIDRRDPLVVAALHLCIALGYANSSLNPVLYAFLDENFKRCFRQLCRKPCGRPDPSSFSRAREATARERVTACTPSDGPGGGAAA
The target of a further experiment is Mu-type opioid receptor (Homo sapiens, UniProt P35372). The experiment is described as follows: HTS Image-Based Screen for Agonists of the MOR Receptor. [Related pubchem assays (depositor defined):AID1777, AID1785, AID1786, AID2133]. The format is functional.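 Further: imaging of beta-arrestin GFP recruitment into spots after receptor activation.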
Experiment [7] addresses T2, Delta-type opioid receptor. The experiment is described as follows: HTS Image-Based Screen for Agonists of the DOR Receptor. [Related pubchem assays (depositor defined):AID1777, AID1786, AID2133]. The format is functional.
Experiment [8] is described as follows: growth suppression of PTEN-null colon cells, dose response, cell-based, HCT116 PTEN knockout (AID 1047).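 Further: HCT116 colon tumor cells with PTEN knocked out; cells exposed to compound for 60 hours before readout; potency for loss of cell viability measured by luminescence.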 The format is functional.
Experiment [9] concerns the target T3, Kappa-type opioid receptor (Homo sapiens, UniProt P41145). The experiment is classed as functional.
For another experiment, the target named is Beta-galactosidase (Escherichia coli, UniProt Q8VNN2). The experiment is classed as functional.
A short description of experiment [10]: growth suppression of beta-catenin-knockout colon cells, dose response, cell-based, HCT116, human colon tumor (AID 1045).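 Further: HCT116 colon tumor cells with beta catenin knocked out; cells exposed to compound for 60 hours.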 The experiment is classed as functional.
Experiment [11] deals with T3, Kappa-type opioid receptor. The experiment is classed as functional. This is another data set of the same source.
The target in experiment [12] is T4, Microphthalmia-associated transcription factor (Homo sapiens, UniProt O75030).
T4 sequence (O75030 whole entry): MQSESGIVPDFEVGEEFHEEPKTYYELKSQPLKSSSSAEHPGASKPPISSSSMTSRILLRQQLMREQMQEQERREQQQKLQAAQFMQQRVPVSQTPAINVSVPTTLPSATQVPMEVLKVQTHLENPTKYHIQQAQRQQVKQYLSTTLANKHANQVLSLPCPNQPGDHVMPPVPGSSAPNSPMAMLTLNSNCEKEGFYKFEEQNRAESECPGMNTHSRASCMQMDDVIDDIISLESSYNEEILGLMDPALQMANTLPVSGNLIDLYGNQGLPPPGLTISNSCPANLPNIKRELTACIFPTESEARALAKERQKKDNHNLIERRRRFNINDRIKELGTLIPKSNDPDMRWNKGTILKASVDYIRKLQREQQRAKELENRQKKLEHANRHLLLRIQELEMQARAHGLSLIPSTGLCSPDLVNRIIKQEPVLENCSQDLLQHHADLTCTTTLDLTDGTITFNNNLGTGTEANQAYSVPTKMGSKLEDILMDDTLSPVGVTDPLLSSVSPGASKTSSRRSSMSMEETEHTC
Description: TRPM1 promoter luciferase signal decrease, dose response, MITF inhibitor project, cell-based, SK-MEL-5, cherry-picked, set 3 (AID 493073).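 Further: SK-MEL-5 melanoma cells with luciferase driven by the MITF target TRPM1 promoter.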 The format is functional.

Another experiment has as its system Vero. Description: Vero cell cytotoxicity, cytotoxicity control for flavivirus capping enzyme inhibitors (AID 588742). The experiment is classed as functional. To be noted: Chlorocebus sabaeus.
Experiment [13] in a line: Shn3 3'UTR reporter inhibitors, dose response, cell-based, Clone20 osteoblasts, firefly luciferase, cherry-picked (AID 624132).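 Further: firefly luciferase luminescence from reporter carrying the Shn3 3'UTR in osteoblasts.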 The format is functional.
Experiment [14] can be described thus: HepG2 cell cytotoxicity, dose response, cytotoxicity control for Shn3 inhibitor project, CellTiter-Glo, cherry-picked (AID 624134). The format is functional, cell-based. Background: In ATP-based viability assays light output follows the ATP content of the culture.
Experiment [15] can be described thus: control 3'UTR Renilla luciferase suppression, dose response, counter-screen for Shn3 inhibitor project, cell-based, Clone20-Shn3RL, cherry-picked (AID 624133). The experiment is classed as functional.
The target of experiment [16] is T5, Fatty acid synthase (Homo sapiens, UniProt P49327). The experiment is described as follows: FAS thioesterase domain inhibitors, dose response, biochemical, endpoint fluorescence intensity, uHTS hits (AID 624327).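 Further: fluorescence from hydrolysis of an O-methyl fluorescein acyl ester substrate by the enzyme.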 The format is functional.
T5 sequence (P49327 whole entry, the tested form may be a part): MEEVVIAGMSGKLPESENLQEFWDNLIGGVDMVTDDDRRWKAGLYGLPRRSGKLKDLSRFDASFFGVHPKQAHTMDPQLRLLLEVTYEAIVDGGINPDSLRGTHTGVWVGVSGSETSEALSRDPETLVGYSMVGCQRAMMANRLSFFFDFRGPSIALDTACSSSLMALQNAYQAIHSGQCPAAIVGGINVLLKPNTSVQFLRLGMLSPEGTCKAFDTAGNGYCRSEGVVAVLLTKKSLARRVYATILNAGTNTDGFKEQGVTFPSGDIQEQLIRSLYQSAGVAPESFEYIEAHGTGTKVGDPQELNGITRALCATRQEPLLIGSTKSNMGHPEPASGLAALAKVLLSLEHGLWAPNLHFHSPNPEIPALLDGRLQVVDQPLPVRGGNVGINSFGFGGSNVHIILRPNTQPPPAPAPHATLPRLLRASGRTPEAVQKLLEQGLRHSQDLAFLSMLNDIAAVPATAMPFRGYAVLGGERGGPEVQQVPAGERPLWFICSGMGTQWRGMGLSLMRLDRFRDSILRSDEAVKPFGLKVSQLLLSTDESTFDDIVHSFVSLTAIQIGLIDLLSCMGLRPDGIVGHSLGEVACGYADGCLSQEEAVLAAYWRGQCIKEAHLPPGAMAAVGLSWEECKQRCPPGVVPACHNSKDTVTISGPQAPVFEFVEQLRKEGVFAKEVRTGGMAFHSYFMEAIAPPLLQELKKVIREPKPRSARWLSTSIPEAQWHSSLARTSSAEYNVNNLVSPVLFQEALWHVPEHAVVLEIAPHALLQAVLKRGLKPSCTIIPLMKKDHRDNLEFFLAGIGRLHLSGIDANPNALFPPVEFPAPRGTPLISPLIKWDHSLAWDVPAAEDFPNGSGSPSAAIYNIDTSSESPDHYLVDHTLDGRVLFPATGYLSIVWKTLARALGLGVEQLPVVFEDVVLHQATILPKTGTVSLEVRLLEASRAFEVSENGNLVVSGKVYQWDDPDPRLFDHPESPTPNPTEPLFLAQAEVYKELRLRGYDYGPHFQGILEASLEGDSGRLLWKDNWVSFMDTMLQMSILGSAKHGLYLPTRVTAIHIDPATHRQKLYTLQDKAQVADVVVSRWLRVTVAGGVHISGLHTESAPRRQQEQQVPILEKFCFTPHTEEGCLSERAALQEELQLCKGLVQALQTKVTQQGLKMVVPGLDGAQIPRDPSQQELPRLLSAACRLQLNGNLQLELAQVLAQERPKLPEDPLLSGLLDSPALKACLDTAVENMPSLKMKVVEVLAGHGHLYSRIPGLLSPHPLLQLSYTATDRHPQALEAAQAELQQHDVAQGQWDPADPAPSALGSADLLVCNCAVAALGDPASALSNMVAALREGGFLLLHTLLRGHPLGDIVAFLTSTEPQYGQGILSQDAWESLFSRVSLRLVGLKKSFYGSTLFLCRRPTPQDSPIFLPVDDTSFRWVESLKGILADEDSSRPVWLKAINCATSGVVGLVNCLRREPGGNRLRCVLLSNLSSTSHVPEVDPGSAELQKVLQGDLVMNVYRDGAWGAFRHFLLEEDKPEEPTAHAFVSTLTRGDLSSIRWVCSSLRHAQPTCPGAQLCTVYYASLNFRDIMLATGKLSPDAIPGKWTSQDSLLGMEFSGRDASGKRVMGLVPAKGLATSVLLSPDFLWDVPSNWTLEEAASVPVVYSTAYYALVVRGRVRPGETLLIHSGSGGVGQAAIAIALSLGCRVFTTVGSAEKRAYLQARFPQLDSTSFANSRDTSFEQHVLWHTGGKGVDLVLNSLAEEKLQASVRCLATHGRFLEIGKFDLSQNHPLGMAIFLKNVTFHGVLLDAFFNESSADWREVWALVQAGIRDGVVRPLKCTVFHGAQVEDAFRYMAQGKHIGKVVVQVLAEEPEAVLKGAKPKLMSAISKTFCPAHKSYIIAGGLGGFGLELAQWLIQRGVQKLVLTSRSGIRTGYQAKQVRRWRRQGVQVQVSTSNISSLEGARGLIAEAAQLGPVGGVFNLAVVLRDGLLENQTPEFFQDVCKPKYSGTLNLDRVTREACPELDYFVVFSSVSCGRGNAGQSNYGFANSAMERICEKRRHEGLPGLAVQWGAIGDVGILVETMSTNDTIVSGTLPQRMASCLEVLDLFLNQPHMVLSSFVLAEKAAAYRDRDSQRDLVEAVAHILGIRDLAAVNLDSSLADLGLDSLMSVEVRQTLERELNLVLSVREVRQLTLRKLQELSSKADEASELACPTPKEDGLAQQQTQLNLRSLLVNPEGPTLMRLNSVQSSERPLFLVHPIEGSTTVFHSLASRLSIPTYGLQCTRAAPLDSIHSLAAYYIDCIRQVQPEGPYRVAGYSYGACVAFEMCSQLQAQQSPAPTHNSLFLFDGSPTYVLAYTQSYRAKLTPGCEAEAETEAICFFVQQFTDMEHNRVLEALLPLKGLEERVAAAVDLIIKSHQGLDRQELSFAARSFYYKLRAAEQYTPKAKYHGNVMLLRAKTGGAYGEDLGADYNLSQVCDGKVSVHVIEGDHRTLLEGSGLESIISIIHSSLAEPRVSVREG
Experiment [17] deals with T5, Fatty acid synthase. Description: FAS thioesterase domain inhibitors, dose response, biochemical, kinetic fluorescence intensity (AID 624326).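 Further: rate of fluorescence rise from hydrolysis of a fluorogenic O-methyl fluorescein ester substrate.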 The format is functional.
Experiment [18] in a line: THP-1 cell cytotoxicity, dose response, cytotoxicity control for Vif-APOBEC3G degradation inhibitor project, THP-1 cells (AID 1117359). The format is functional. To be noted: Human immunodeficiency virus 1, THP-1.
Experiment [19] addresses 26S proteasome non-ATPase regulatory subunit 14 (Homo sapiens, UniProt O00487). The experiment is described as follows: inhibition of proteasome subunit RPN11 – biochemical, fluorescence polarization, uHTS hits, confirmation (AID 602368). The format is functional. Background: In fluorescence polarisation assays a small probe gives low polarisation when free and higher when bound to something large.

Experiment [20] has as its target 72 kDa type IV collagenase (Homo sapiens, UniProt P08253). The experiment is described as follows: Dose Response validation of uHTS RPN11 inhibitor hits using a MMP-2 Fluorescence assay. The format is functional.
The target in another experiment is Prothrombin (Bos taurus, UniProt P00735). Description: thrombin inhibition, dose response, biochemical, fluorescence polarization, uHTS hits (AID 602369). The experiment is classed as functional.
Experiment [21] can be described thus: inhibitors of intracellular T. cruzi replication, confirmation, NIH3T3 host cells, beta-gal luminescence (AID 2044).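 Further: intracellular parasites grown in NIH/3T3 mouse fibroblasts as host cells; luminescent beta-galactosidase reporter signal from transgenic T. cruzi replicating inside host cells; inhibitors lower the luminescence signal.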 The format is functional, cell-based.
A short description of experiment [22]: cytotoxicity toward NIH3T3 fibroblasts, dose response, counter-screen, cell-based, ATP luminescence, mouse fibroblasts (AID 2010).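 Further: cells exposed to compound for about 90 hours before reading.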 The experiment is classed as functional.
A short description of experiment [23]: THP-1 cell cytotoxicity, dose response, cytotoxicity control for non-replicating M. tuberculosis project (AID 489025). The experiment is classed as functional.
The nature of another experiment: cells. The format is functional.
Experiment [24] deals with Peroxisome proliferator-activated receptor gamma/Nuclear receptor coactivator 2 (Homo sapiens, UniProt P37231). The format is functional.
The target of experiment [25] is Peroxisome proliferator-activated receptor gamma/Nuclear receptor coactivator 1 (Homo sapiens, UniProt P37231). The experiment is classed as functional.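 Further: agonist potency as compounds enhance coactivator SRC-1 recruitment to PPARgamma.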
Experiment [26] addresses Peroxisome proliferator-activated receptor gamma/Nuclear receptor coactivator 3 (Homo sapiens, UniProt P37231). The experiment is classed as functional.
The target of the next experiment is T6, Caspase-6 (Homo sapiens, UniProt P55212).
T6 sequence (P55212 whole entry): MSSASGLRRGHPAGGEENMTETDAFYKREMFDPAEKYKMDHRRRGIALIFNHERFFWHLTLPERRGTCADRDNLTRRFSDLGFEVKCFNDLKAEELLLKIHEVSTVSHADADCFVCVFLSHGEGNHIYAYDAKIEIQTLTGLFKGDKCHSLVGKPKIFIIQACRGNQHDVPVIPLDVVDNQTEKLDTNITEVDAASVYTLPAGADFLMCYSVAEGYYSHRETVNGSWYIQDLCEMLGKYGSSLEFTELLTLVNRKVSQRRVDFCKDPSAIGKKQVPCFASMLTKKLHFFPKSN
The experiment is described as follows: human caspase-6 inhibitors, dose response, biochemical, VEID-R110 fluorescence, cherry-pick (AID 720632).

T3 sequence (P41145 whole entry): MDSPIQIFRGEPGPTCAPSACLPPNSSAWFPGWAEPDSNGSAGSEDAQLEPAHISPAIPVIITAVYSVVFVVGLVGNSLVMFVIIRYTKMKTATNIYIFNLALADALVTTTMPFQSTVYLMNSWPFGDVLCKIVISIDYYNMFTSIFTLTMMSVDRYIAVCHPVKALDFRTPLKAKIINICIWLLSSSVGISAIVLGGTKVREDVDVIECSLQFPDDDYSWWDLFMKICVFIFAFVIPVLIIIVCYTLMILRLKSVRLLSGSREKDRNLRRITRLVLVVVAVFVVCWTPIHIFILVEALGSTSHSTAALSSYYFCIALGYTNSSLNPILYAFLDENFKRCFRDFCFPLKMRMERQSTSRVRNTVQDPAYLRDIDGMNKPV
Sequence of 26S proteasome non-ATPase regulatory subunit 14 (O00487 whole entry): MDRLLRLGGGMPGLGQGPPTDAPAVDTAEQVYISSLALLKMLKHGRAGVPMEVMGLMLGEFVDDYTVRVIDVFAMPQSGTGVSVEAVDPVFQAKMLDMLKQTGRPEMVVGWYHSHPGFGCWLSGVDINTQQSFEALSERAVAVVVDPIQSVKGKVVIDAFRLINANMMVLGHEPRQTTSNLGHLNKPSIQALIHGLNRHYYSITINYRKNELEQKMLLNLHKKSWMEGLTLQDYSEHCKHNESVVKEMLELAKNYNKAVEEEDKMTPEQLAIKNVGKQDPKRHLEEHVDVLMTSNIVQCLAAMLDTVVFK
Sequence of 72 kDa type IV collagenase (P08253 whole entry): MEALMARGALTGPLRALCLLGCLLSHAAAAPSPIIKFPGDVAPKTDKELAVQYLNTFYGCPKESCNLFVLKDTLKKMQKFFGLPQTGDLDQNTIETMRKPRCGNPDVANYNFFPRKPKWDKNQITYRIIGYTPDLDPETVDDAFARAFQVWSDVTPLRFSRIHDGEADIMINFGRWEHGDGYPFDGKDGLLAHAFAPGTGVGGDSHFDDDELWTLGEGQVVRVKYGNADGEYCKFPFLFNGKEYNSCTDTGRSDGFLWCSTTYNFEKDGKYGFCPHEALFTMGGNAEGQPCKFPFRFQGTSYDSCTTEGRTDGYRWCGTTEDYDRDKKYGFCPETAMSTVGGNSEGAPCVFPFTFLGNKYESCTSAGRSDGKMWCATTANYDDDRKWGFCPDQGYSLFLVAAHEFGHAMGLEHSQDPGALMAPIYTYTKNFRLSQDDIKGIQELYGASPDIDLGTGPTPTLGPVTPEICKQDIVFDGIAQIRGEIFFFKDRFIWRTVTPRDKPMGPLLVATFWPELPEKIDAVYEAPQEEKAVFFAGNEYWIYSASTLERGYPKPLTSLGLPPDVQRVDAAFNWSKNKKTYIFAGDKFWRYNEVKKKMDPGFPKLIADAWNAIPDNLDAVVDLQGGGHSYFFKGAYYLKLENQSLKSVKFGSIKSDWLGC

Take `O=C1c2ccccc2C(=O)C1c1ccccn1`: the concentration at half-maximal activity (AC50) in the experiment on HeLa was 139 µM (active); in [1], 9.62 µM (active).

Turning to `O=C(NCc1ccc(F)cc1)C(c1ccccc1)N(CC1CCCO1)C(=O)Cn1nnc2ccccc21` (stereo unspecified), the EC50 in experiment [2] is > 150 µM (inactive); in experiment [3], 1.07 µM (active); in experiment [4], > 180 µM (inactive); in [5], > 150 µM (inactive).

In the case of `CCC(=O)OCCNc1cc(Sc2nc3ccccc3[nH]2)c2nonc2c1[N+](=O)[O-]`, the IC50 was > 32 µM (inactive) in experiment [6]; 2.56 µM (active) in experiment [9]; 19.1 µM in experiment [11]; 2.04 µM (active) at Fatty acid synthase [16]; 0.845 µM (active) at Fatty acid synthase [17]. In addition, the EC50 at Mu-type opioid receptor is > 32 µM (inactive); in [7], > 32 µM (inactive); in experiment [8] it was 6.88 µM (active); at Beta-galactosidase it was > 31.5 µM (inactive); in [10], 5.01 µM (active). The AC50 in [12] was 9.14 µM (active); in [13] it was 1.09 µM (active); in experiment [14], 27.4 µM (active); in experiment [15], 8.68 µM (active). Besides, the CC50 was 19 µM (active) in the experiment on Vero and 14.7 µM (active) in [18].

Regarding `COc1ccc2c3c([nH]c2c1)C(C)NCC3` (stereo unspecified), in experiment [1], the half-maximal activity concentration (AC50) was 2.99 µM (active). Also, the IC50 was 17.9 µM (active) in experiment [19], > 100 µM (inactive) in [20] and 13.7 µM (active) at Prothrombin.

On to `COc1ccccc1OCC(=O)N/N=C/C=C/c1ccc([N+](=O)[O-])o1`, for which the EC50 in experiment [2] is 51.2 µM (active); in [3], 0.654 µM (active); in experiment [21], 0.105 µM (active); in [4] it was > 180 µM (inactive); in [22], 14.2 µM (active); in experiment [5], > 160 µM (inactive). In addition, the cytotoxic concentration (CC50) in experiment [23] is 23 µM (active). Also, the half-maximal activity concentration (AC50) in [12] was 7.39 µM (active). Moreover, the concentration for half-maximal inhibition (IC50) in “cells” is 2.27 µM (active).

As for `Oc1ccc(NCc2cccc(OCc3ccc(F)cc3)c2)cc1`, the half-maximal effective concentration (EC50) in experiment [24], in experiment [25] and in [26] was > 79.4 µM (not active) in each case. In addition, the CC50 (with Vero; in experiment [18]) was > 40 µM (active) in each case. Also, the AC50 on Caspase-6 is 6.29 µM (active).
